# In paper PMC12440775 (Frontiers in Pharmacology, 2025):
# “Also recorded” adds a separate entry of the source. Marks after values point to notes of the source that are not given here.
# Tests used:
# [1] = Safety and tolerability, single ascending dose (Part 1); format: in vivo, human; settings: for Abdominal pain / Diarrhea / Dizziness / Flatulence / Gastrointestinal disorders / Headache / Hepatobiliary disorders / Hyperbilirubinemia / Jaundice / Nausea / Nervous system disorders / Retching / Subjects with any AE / Vomiting: 6 subjects
# Experimental: (§1) Six volunteers received the active drug at each dose level dissolved in a polyethylene glycol (PEG)/tromethamine (TRIS)/meglumine solution, and two received a placebo. One dose level was tested within each group. Subject groups were dosed and evaluated sequentially, beginning with the lowest-dose group and proceeding stepwise to the highest-dose group. The next higher dose was administered only if no safety concerns arose during treatment of the preceding group.
# (§2) Safety was assessed throughout the study by monitoring changes in clinical laboratory parameters (e.g., serum biochemistry, hematology, and urinalysis), 12-lead electrocardiograms, or vital signs (blood pressure, pulse rate, and temperature measurements); monitoring for occurrence of AEs); and carrying out physical examinations.
# [2] = Safety and tolerability, food effect part (Part 2); format: in vivo, human
# Experimental: as §1, §2
# human Hepato Pac model = test system: human Hepato Pac model; design: method as in Ramsden et al., 2014b; settings: ref Ramsden et al., 2014b; cited from earlier work
# HCV = test system: HCV; design: method as in Ferenci et al., 2015; settings: in combination with PegIFN and RBV, treatment-naïve patients; ref Ferenci et al., 2015; cited from earlier work
# CYP2C9 = settings: therapeutic dose of 120 mg QD; cited from earlier work
# CYP3A4 = settings: therapeutic dose of 120 mg QD; cited from earlier work
structure (smiles),measurement,setting,value
"C=C[C@@H]1C[C@]1(NC(=O)[C@@H]1C[C@@H](Oc2cc(-c3csc(NC(=O)C(C)C)n3)nc3c(Br)c(OC)ccc23)CN1C(=O)[C@@H](NC(=O)OC1CCCC1)C(C)(C)C)C(=O)O [FDV, Faldaprevir]",Subjects with increases in total bilirubin,"[1]; 120 mg, Part 1",two subjects
same,Subjects with increases in total bilirubin,"[1]; 240 mg, Part 1",three subjects
same,Subjects with increases in total bilirubin,"[1]; 480 mg, Part 1",five subjects
same,Subjects with increases in total bilirubin,"[1]; 800 mg, Part 1",six subjects
same,Subjects with increases in total bilirubin,"[1]; 1,200 mg, Part 1",six subjects
same,Subjects with marked hyperbilirubinemia / indirect (unconjugated) bilirubin >3.0 mg/dL,"[1]; 480-mg group, Part 1",two subjects
same,Subjects with marked hyperbilirubinemia / indirect (unconjugated) bilirubin >3.0 mg/dL,"[1]; 1,200-mg group, Part 1",five subjects
same,Abdominal pain,[1]; FDV 4 mg,0 n (%)
same,Diarrhea,[1]; FDV 4 mg,0 n (%)
same,Dizziness,[1]; FDV 4 mg,0 n (%)
same,Flatulence,[1]; FDV 4 mg,0 n (%)
same,Gastrointestinal disorders,[1]; FDV 4 mg,1 (16.7) n (%)
same,Headache,[1]; FDV 4 mg,1 (16.7) n (%)
same,Hepatobiliary disorders,[1]; FDV 4 mg,0 n (%)
same,Hyperbilirubinemia,[1]; FDV 4 mg,0 n (%)
same,Jaundice,[1]; FDV 4 mg,0 n (%)
same,Nausea,[1]; FDV 4 mg,1 (16.7) n (%)
same,Nervous system disorders,[1]; FDV 4 mg,1 (16.7) n (%)
same,Retching,[1]; FDV 4 mg,0 n (%)
same,Subjects with any AE,[1]; FDV 4 mg,1 (16.7) n (%)
same,Vomiting,[1]; FDV 4 mg,0 n (%)
same,Abdominal pain,[1]; FDV 16 mg,0 n (%)
same,Diarrhea,[1]; FDV 16 mg,0 n (%)
same,Dizziness,[1]; FDV 16 mg,0 n (%)
same,Flatulence,[1]; FDV 16 mg,0 n (%)
same,Gastrointestinal disorders,[1]; FDV 16 mg,0 n (%)
same,Headache,[1]; FDV 16 mg,0 n (%)
same,Hepatobiliary disorders,[1]; FDV 16 mg,0 n (%)
same,Hyperbilirubinemia,[1]; FDV 16 mg,0 n (%)
same,Jaundice,[1]; FDV 16 mg,0 n (%)
same,Nausea,[1]; FDV 16 mg,0 n (%)
same,Nervous system disorders,[1]; FDV 16 mg,0 n (%)
same,Retching,[1]; FDV 16 mg,0 n (%)
same,Subjects with any AE,[1]; FDV 16 mg,0 n (%)
same,Vomiting,[1]; FDV 16 mg,0 n (%)
same,Abdominal pain,[1]; FDV 48 mg,0 n (%)
same,Diarrhea,[1]; FDV 48 mg,0 n (%)
same,Dizziness,[1]; FDV 48 mg,1 (16.7) n (%)
same,Flatulence,[1]; FDV 48 mg,0 n (%)
same,Gastrointestinal disorders,[1]; FDV 48 mg,0 n (%)
same,Headache,[1]; FDV 48 mg,1 (16.7) n (%)
same,Hepatobiliary disorders,[1]; FDV 48 mg,0 n (%)
same,Hyperbilirubinemia,[1]; FDV 48 mg,0 n (%)
same,Jaundice,[1]; FDV 48 mg,0 n (%)
same,Nausea,[1]; FDV 48 mg,0 n (%)
same,Nervous system disorders,[1]; FDV 48 mg,1 (16.7) n (%)
same,Retching,[1]; FDV 48 mg,0 n (%)
same,Subjects with any AE,[1]; FDV 48 mg,3 (50.0) n (%)
same,Vomiting,[1]; FDV 48 mg,0 n (%)
same,Abdominal pain,[1]; FDV 120 mg,0 n (%)
same,Diarrhea,[1]; FDV 120 mg,1 (16.7) n (%)
same,Dizziness,[1]; FDV 120 mg,0 n (%)
same,Flatulence,[1]; FDV 120 mg,0 n (%)
same,Gastrointestinal disorders,[1]; FDV 120 mg,1 (16.7) n (%)
same,Headache,[1]; FDV 120 mg,0 n (%)
same,Hepatobiliary disorders,[1]; FDV 120 mg,0 n (%)
same,Hyperbilirubinemia,[1]; FDV 120 mg,0 n (%)
same,Jaundice,[1]; FDV 120 mg,0 n (%)
same,Nausea,[1]; FDV 120 mg,0 n (%)
same,Nervous system disorders,[1]; FDV 120 mg,0 n (%)
same,Retching,[1]; FDV 120 mg,0 n (%)
same,Subjects with any AE,[1]; FDV 120 mg,1 (16.7) n (%)
same,Vomiting,[1]; FDV 120 mg,0 n (%)
same,Abdominal pain,[1]; FDV 240 mg,1 (16.7) n (%)
same,Diarrhea,[1]; FDV 240 mg,0 n (%)
same,Dizziness,[1]; FDV 240 mg,0 n (%)
same,Flatulence,[1]; FDV 240 mg,0 n (%)
same,Gastrointestinal disorders,[1]; FDV 240 mg,2 (33.3) n (%)
same,Headache,[1]; FDV 240 mg,2 (33.3) n (%)
same,Hepatobiliary disorders,[1]; FDV 240 mg,0 n (%)
same,Hyperbilirubinemia,[1]; FDV 240 mg,0 n (%)
same,Jaundice,[1]; FDV 240 mg,0 n (%)
same,Nausea,[1]; FDV 240 mg,1 (16.7) n (%)
same,Nervous system disorders,[1]; FDV 240 mg,2 (33.3) n (%)
same,Retching,[1]; FDV 240 mg,0 n (%)
same,Subjects with any AE,[1]; FDV 240 mg,5 (83.3) n (%)
same,Vomiting,[1]; FDV 240 mg,1 (16.7) n (%)
same,Abdominal pain,[1]; FDV 480 mg,0 n (%)
same,Diarrhea,[1]; FDV 480 mg,3 (50.0) n (%)
same,Dizziness,[1]; FDV 480 mg,1 (16.7) n (%)
same,Flatulence,[1]; FDV 480 mg,1 (16.7) n (%)
same,Gastrointestinal disorders,[1]; FDV 480 mg,4 (66.7) n (%)
same,Headache,[1]; FDV 480 mg,3 (50.0) n (%)
same,Hepatobiliary disorders,[1]; FDV 480 mg,2 (33.3) n (%)
same,Hyperbilirubinemia,[1]; FDV 480 mg,2 (33.3) n (%)
same,Jaundice,[1]; FDV 480 mg,0 n (%)
same,Nausea,[1]; FDV 480 mg,2 (33.3) n (%)
same,Nervous system disorders,[1]; FDV 480 mg,4 (66.7) n (%)
same,Retching,[1]; FDV 480 mg,2 (33.3) n (%)
same,Subjects with any AE,[1]; FDV 480 mg,6 (100) n (%)
same,Vomiting,[1]; FDV 480 mg,1 (16.7) n (%)
same,Abdominal pain,[1]; FDV 800 mg,1 (16.7) n (%)
same,Diarrhea,[1]; FDV 800 mg,4 (66.7) n (%)
same,Dizziness,[1]; FDV 800 mg,1 (16.7) n (%)
same,Flatulence,[1]; FDV 800 mg,0 n (%)
same,Gastrointestinal disorders,[1]; FDV 800 mg,4 (66.7) n (%)
same,Headache,[1]; FDV 800 mg,1 (16.7) n (%)
same,Hepatobiliary disorders,[1]; FDV 800 mg,0 n (%)
same,Hyperbilirubinemia,[1]; FDV 800 mg,0 n (%)
same,Jaundice,[1]; FDV 800 mg,0 n (%)
same,Nausea,[1]; FDV 800 mg,1 (16.7) n (%)
same,Nervous system disorders,[1]; FDV 800 mg,1 (16.7) n (%)
same,Retching,[1]; FDV 800 mg,0 n (%)
same,Subjects with any AE,[1]; FDV 800 mg,4 (66.7) n (%)
same,Vomiting,[1]; FDV 800 mg,0 n (%)
same,Abdominal pain,"[1]; FDV 1,200 mg",0 n (%)
same,Diarrhea,"[1]; FDV 1,200 mg",3 (50.0) n (%)
same,Dizziness,"[1]; FDV 1,200 mg",1 (16.7) n (%)
same,Flatulence,"[1]; FDV 1,200 mg",1 (16.7) n (%)
same,Gastrointestinal disorders,"[1]; FDV 1,200 mg",4 (66.7) n (%)
same,Headache,"[1]; FDV 1,200 mg",0 n (%)
same,Hepatobiliary disorders,"[1]; FDV 1,200 mg",5 (83.3) n (%)
same,Hyperbilirubinemia,"[1]; FDV 1,200 mg",5 (83.3) n (%)
same,Nausea,"[1]; FDV 1,200 mg",1 (16.7) n (%)
same,Nervous system disorders,"[1]; FDV 1,200 mg",1 (16.7) n (%)
same,Retching,"[1]; FDV 1,200 mg",1 (16.7) n (%)
same,Subjects with any AE,"[1]; FDV 1,200 mg",6 (100) n (%)
same,Vomiting,"[1]; FDV 1,200 mg",0 n (%)
same,Jaundice,"[1]; FDV 1,200 mg, mild transient jaundice of the skin and sclera",1 (16.7) ^b n (%)
same,Severe vomiting,[1]; FDV 240-mg dose group,one subject
same,Subjects with an AE after treatment with FDV,"[1]; Part 1, all FDV dose groups",26 subjects out of 48
same,Subjects with AEs with a possible relationship to the study drug according to the investigator,"[1]; Part 1, receiving FDV",19 subjects
same,Subjects with marked hyperbilirubinemia (>3.0 mg/dL),"[1]; all dose groups, Part 1",seven subjects
same,Serious AEs,[1]; during the study (both parts),no serious AEs were reported; also recorded: No serious AEs occurred
same,Tolerability,"[1]; oral solution, single doses 4–1,200 mg",generally well tolerated
same,"Changes in alanine transaminase, hemoglobin, or neutrophil count",[1]; subjects with hyperbilirubinemia or elevated total bilirubin,no clinically relevant changes
same,"Changes in vital signs, ECGs, or medical examinations",[1]; whole study,No clinically relevant changes
same,Subjects with slight elevations of direct bilirubin,"[1]; whole study, groups not specified",14 subjects
same,Subjects with increases in total bilirubin,"[2]; 480 mg, Part 2",eight subjects
same,Diarrhea and nausea,"[2]; Part 2, FDV 480 mg (n = 8)",three subjects
same,Headache,"[2]; Part 2, FDV 480 mg (n = 8)",one subject
same,Vomiting,"[2]; Part 2, FDV 480 mg (n = 8)",two subjects
same,Predicted enrichment in the liver in humans,human Hepato Pac model,22–32 fold
same,Sustained virologic response (SVR) rate,HCV,up to 84%
same,Effect on CYP2C9,CYP2C9,inhibitory effects
same,Effect on CYP3A4,CYP3A4,weak inhibitory effects
